Assay results published in patent publication US12479825B2, “Melanocortin subtype-2 receptor (MC2R) antagonists and uses thereof” (Crinetics Pharmaceuticals, Inc., priority 2019, dated 2025).

Target: T1, hMC2 receptor (Homo sapiens, UniProt Q01718)
T1 construct: host or cells: CRE-bla-CHO-K1 cells, crude membrane fraction
Assay: hMC2 membrane binding assay ([125I]ACTH (1-39) Tyr23, SPA)
Details: crude hMC2R membranes from CRE-bla-CHO-K1 cells expressing hMC2 receptor and hMRAP; 0.2 nM [125I]ACTH (1-39) Tyr23; 1.5 hours at room temperature; read-out: MC2R binding potency
Description: Crude membrane fractions are prepared from CRE-bla-CHO-K1 cells stably expressing hMC2 receptor and hMRAP accessory protein (Thermo Fisher). The cells are grown to 85-100% confluence on standard tissue culture dishes in GlutaMax DMEM growth media (Gibco) with following additives: 10% dialyzed FBS (Gemini), 0.1 mM NEAA (Gibco), 25 mM HEPES (Gibco), 5 μg/mL blasticidin (Goldbio), 100 μg/mL zeocin (Invitrogen), 600 μg/mL hygromycin (Goldbio). To prepare membranes, cells are scraped and collected in 1× Dulbecco's phosphate buffered saline (Corning) and then pelleted at 1000 RPM's. The cell pellet is reconstituted in membrane preparation buffer (20 mM HEPES, 6 mM MgCl2 and 1 mM EGTA, protease inhibitor tablets (Pierce) adjusted to pH 7.4), homogenized using a dounce homogenizer, and the resulting membrane fraction is pelleted by centrifugation at 12,000 RPM's. The membrane pellet is resuspended in membrane preparation buffer, snap freezed and stored at −80° C. for later use.
The hMC2 membrane binding assay utilizes the following components: radiolabel [^125I]ACTH (1-39) Tyr23 (PerkinElmer), wheat germ agglutinin coated PVT SPA beads (PerkinElmer), crude hMC2R membranes, and compounds. Briefly hMC2R membranes are incubated with SPA beads in binding assay buffer (50 mM HEPES, 5 mM MgCl2, 1 mM CaCl2, 0.2% BSA, protease inhibitor tablets (Pierce) adjusted to pH7.4) prior to assay initiation. A dose response of compound (the final concentration of compound is typically 0-10,000 nM), SPA membranes, and [^125I]ACTH (1-39) Tyr23 at a final concentration of 0.2 nM is plated in a 96-well assay plate and allowed to incubate 1.5 hours at room temperature. Assay plates are read using a Top Count NXT and Ki values for compounds are determined using a GraphPad Prism 6 non-linear regression analysis.

T1 sequence (Q01718 whole entry): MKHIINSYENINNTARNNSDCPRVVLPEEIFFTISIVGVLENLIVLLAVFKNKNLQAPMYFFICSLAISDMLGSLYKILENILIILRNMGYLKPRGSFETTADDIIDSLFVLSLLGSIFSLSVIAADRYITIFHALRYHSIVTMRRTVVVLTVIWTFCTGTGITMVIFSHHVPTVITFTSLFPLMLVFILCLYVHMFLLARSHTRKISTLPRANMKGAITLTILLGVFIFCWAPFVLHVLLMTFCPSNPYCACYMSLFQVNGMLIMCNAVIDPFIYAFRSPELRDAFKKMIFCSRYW
T1 sequence (Q8TCY5 whole entry partner): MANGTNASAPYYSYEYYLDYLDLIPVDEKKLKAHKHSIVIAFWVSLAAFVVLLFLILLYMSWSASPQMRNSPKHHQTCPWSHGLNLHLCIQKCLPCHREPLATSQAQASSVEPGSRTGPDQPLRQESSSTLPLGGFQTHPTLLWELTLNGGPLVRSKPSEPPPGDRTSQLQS

| SMILES | Ki [µM] |
| --- | --- |
| CCOc1ncccc1-c1ccc(N2CCN(C(=O)c3ccc(F)cc3C(F)F)C[C@H]2CC)c(OCCN)n1 [1-13, 2-({5-[(2R)-4-[2-(difluoromethyl)-4-fluorobenzoyl]-2-ethylpiperazin-1-yl]-2′-ethoxy-[2,3′-bipyridin]-6-yl}oxy)ethan-1-amine] | < 0.01 |
| CCOc1ccc(C(=O)N2CCN(c3ccc(-c4cccnc4OCC)nc3O[C@@H]3CCNC3)[C@H](CC)C2)c(C(F)(F)F)n1 [1-5, 2′-ethoxy-5-[(2R)-4-[6-ethoxy-2-(trifluoromethyl)pyridine-3-carbonyl]-2-ethylpiperazin-1-yl]-6-[(3R)-pyrrolidin-3-yloxy]-2,3′-bipyridine] | < 0.01 |
| CCOc1ncccc1-c1ccc(N2CCN(C(=O)c3ccc(F)cc3C(F)F)C[C@H]2CC)c(OCCNC)n1 [1-10, [2-({5-[(2R)-4-[2-(difluoromethyl)-4-fluorobenzoyl]-2-ethylpiperazin-1-yl]-2′-ethoxy-[2,3′-bipyridin]-6-yl}oxy)ethyl](methyl)amine] | < 0.01 |
| CCOc1ncccc1-c1ccc(N2CCN(C(=O)N3CCc4cc(Cl)cc(C#N)c43)C[C@H]2CC)c(OCCNC)n1 [1-26, 5-chloro-1-[(3R)-4-{2′-ethoxy-6-[2-(methylamino)ethoxy]-[2,3′-bipyridin]-5-yl}-3-ethylpiperazine-1-carbonyl]-2,3-dihydro-1H-indole-7-carbonitrile] | < 0.01 |
| CCOc1ccc(C(=O)N2CCN(c3ccc(-c4cccnc4OCC)nc3O[C@@H](C)CN)[C@H](CC)C2)c(C(F)(F)F)n1 [1-22, (2S)-2-({2′-ethoxy-5-[(2R)-4-[6-ethoxy-2-(trifluoromethyl)pyridine-3-carbonyl]-2-ethylpiperazin-1-yl]-[2,3′-bipyridin]-6-yl}oxy)propan-1-amine] | < 0.01 |
| CCOc1ccc(C(=O)N2CCN(c3ccc(-c4cccnc4OCC)nc3OCCN(C)C)[C@H](CC)C2)c(C(F)(F)F)n1 [1-17, [2-({2′-ethoxy-5-[(2R)-4-[6-ethoxy-2-(trifluoromethyl)pyridine-3-carbonyl]-2-ethylpiperazin-1-yl]-[2,3′-bipyridin]-6-yl}oxy)ethyl]dimethylamine] | < 0.01 |
| CCOc1ncccc1-c1ccc(N2CCN(C(=O)c3ccc(F)cc3Cl)C[C@H]2CC)c(OCCNC)n1 [1-29, [2-({5-[(2R)-4-(2-chloro-4-fluorobenzoyl)-2-ethylpiperazin-1-yl]-2′-ethoxy-[2,3′-bipyridin]-6-yl}oxy)ethyl](methyl)amine] | < 0.01 |
| CCOc1ncccc1-c1ccc(N2CC[C@H](Oc3ccc(C(F)(F)F)nc3C#N)C[C@@H]2CC)c(C(=O)N[C@@H]2CN3CCC2CC3)n1 (mixture of isomers) [2-19, N-[(3S)-1-azabicyclo[2.2.2]octan-3-yl]-5-(cis-4-{[2-cyano-6-(trifluoromethyl)pyridin-3-yl]oxy}-2-ethylpiperidin-1-yl)-2′-ethoxy-[2,3′-bipyridine]-6-carboxamide] | < 0.01 |
| CCOc1ncccc1-c1ccc(N2CCN(C(=O)N3CCC[C@H]3C(F)(F)F)C[C@H]2CC)c(OCCN)n1 [1-14, 2-({2′-ethoxy-5-[(2R)-2-ethyl-4-[(2S)-2-(trifluoromethyl)pyrrolidine-1-carbonyl]piperazin-1-yl]-[2,3′-bipyridin]-6-yl}oxy)ethan-1-amine] | < 0.01 |
| CCOc1ncccc1-c1ccc(N2CC[C@@H](Oc3ccc(C(F)(F)F)cc3C#N)C[C@H]2CC)c(C(=O)N[C@@H]2CN3CCC2CC3)n1 (racemic) [2-20, N-[(3S)-1-azabicyclo[2.2.2]octan-3-yl]-5-[cis*-4-[2-cyano-4-(trifluoromethyl)phenoxy]-2-ethylpiperidin-1-yl]-2′-ethoxy-[2,3′-bipyridine]-6-carboxamide] | < 0.01 |
| CCOc1ccc(C(=O)N2CCN(c3ccc(-c4cccnc4OCC)nc3O[C@H](C)CN)[C@H](CC)C2)c(C(F)(F)F)n1 [1-21, (2R)-2-({2′-ethoxy-5-[(2R)-4-[6-ethoxy-2-(trifluoromethyl)pyridine-3-carbonyl]-2-ethylpiperazin-1-yl]-[2,3′-bipyridin]-6-yl}oxy)propan-1-amine] | < 0.01 |
| CCOc1ncccc1-c1ccc(N2CCN(C(=O)N3CCc4cccc(C#N)c43)C[C@H]2CC)c(OCCN)n1 [1-24, 1-[(3R)-4-[6-(2-aminoethoxy)-2′-ethoxy-[2,3′-bipyridin]-5-yl]-3-ethylpiperazine-1-carbonyl]-2,3-dihydro-1H-indole-7-carbonitrile] | < 0.01 |
| CCOc1ncccc1-c1ccc(N2CCN(C(=O)N3CCC[C@H]3C(F)(F)F)C[C@H]2CC)c(O[C@@H]2CCN(C)C2)n1 [1-4, 2′-ethoxy-5-[(2R)-2-ethyl-4-[(2S)-2-(trifluoromethyl)pyrrolidine-1-carbonyl]piperazin-1-yl]-6-{[(3R)-1-methylpyrrolidin-3-yl]oxy}-2,3′-bipyridine] | 0.01 to 0.1 |
| CCOc1ncccc1-c1ccc(N2CCN(C(=O)c3ccc(Cl)cc3C(F)(F)F)C[C@H]2CC)c(O[C@@H]2CCNC2)n1 [1-7, 5-[(2R)-4-[4-chloro-2-(trifluoromethyl)benzoyl]-2-ethylpiperazin-1-yl]-2′-ethoxy-6-[(3R)-pyrrolidin-3-yloxy]-2,3′-bipyridine] | < 0.01 |
| CCOc1ncccc1-c1ccc(N2CCN(C(=O)N3CCC[C@H]3C(F)(F)F)C[C@H]2CC)c(O[C@@H]2CCNC2)n1 [1-8, 2′-ethoxy-5-[(2R)-2-ethyl-4-[(2S)-2-(trifluoromethyl)pyrrolidine-1-carbonyl]piperazin-1-yl]-6-[(3R)-pyrrolidin-3-yloxy]-2,3′-bipyridine] | < 0.01 |
| CCOc1ccc(C(=O)N2CCN(c3ccc(-c4cccnc4OCC)nc3OCCNC)[C@H](CC)C2)c(C(F)(F)F)n1 [1-9, [2-({2′-ethoxy-5-[(2R)-4-[6-ethoxy-2-(trifluoromethyl)pyridine-3-carbonyl]-2-ethylpiperazin-1-yl]-[2,3′-bipyridin]-6-yl}oxy)ethyl](methyl)amine] | < 0.01 |
| CCOc1ncccc1-c1ccc(N2CCN(C(=O)c3ccc(OC)nc3C(F)(F)F)C[C@H]2CC)c(OCCNC)n1 [1-30, [2-({2′-ethoxy-5-[(2R)-2-ethyl-4-[6-methoxy-2-(trifluoromethyl)pyridine-3-carbonyl]piperazin-1-yl]-[2,3′-bipyridin]-6-yl}oxy)ethyl](methyl)amine] | < 0.01 |
| CCOc1ccc(C(=O)N2CCN(c3ccc(-c4cccnc4OCC)nc3O[C@H]3CCNC3)[C@H](CC)C2)c(C(F)(F)F)n1 [1-18, 2′-ethoxy-5-[(2R)-4-[6-ethoxy-2-(trifluoromethyl)pyridine-3-carbonyl]-2-ethylpiperazin-1-yl]-6-[(3S)-pyrrolidin-3-yloxy]-2,3′-bipyridine] | < 0.01 |
| CCOc1ccc(C(=O)N2CCN(c3ccc(-c4cccnc4OCC)nc3OC[C@@H](C)N)[C@H](CC)C2)c(C(F)(F)F)n1 [1-19, (2R)-1-({2′-ethoxy-5-[(2R)-4-[6-ethoxy-2-(trifluoromethyl)pyridine-3-carbonyl]-2-ethylpiperazin-1-yl]-[2,3′-bipyridin]-6-yl}oxy)propan-2-amine] | < 0.01 |
| CCOc1ccc(C(=O)N2CCN(c3ccc(-c4cccnc4OCC)nc3OCCN)[C@H](CC)C2)c(C(F)(F)F)n1 [1-12, 2-({2′-ethoxy-5-[(2R)-4-[6-ethoxy-2-(trifluoromethyl)pyridine-3-carbonyl]-2-ethylpiperazin-1-yl]-[2,3′-bipyridin]-6-yl}oxy)ethan-1-amine] | < 0.01 |

The next lines start with the values.

| Ki [µM] | SMILES |
| --- | --- |
| 0.01 to 0.1 | CCOc1ncccc1-c1ccc(N2CC[C@H](Oc3ccc(C(F)(F)F)cc3C#N)C[C@@H]2CC)c(C(=O)N[C@@H]2CCN(C)C2)n1 (single isomer, unassigned) [2-12] |
| 0.01 to 0.1 | CCOc1ncccc1-c1ccc(N2CCN(C(=O)c3ccc(F)cc3Cl)C[C@H]2CC)c(-c2nnc(CN)[nH]2)n1 [4-2, 1-(5-{5-[(2R)-4-(2-chloro-4-fluorobenzoyl)-2-ethylpiperazin-1-yl]-2′-ethoxy-[2,3′-bipyridin]-6-yl}-4H-1,2,4-triazol-3-yl)methanamine] |
| < 0.01 | CCOc1ncccc1-c1ccc(N2CC[C@H](Oc3ccc(C(F)(F)F)cc3C#N)C[C@@H]2C2CC2)c(C(=O)N[C@@H]2CCN(C)C2)n1 (mixture of isomers) [2-6, 5-{cis-4-[2-cyano-4-(trifluoromethyl)phenoxy]-2-cyclopropylpiperidin-1-yl}-2′-ethoxy-N-[(3R)-1-methylpyrrolidin-3-yl]-[2,3′-bipyridine]-6-carboxamide] |
| < 0.01 | CCOc1ncccc1-c1ccc(N2CC[C@H](Oc3ccc(C(F)(F)F)nc3C#N)C[C@@H]2C2CC2)c(C(=O)N[C@@H]2CCN(C)C2)n1 (mixture of isomers) [2-14, 5-(cis-4-{[2-cyano-6-(trifluoromethyl)pyridin-3-yl]oxy}-2-cyclopropylpiperidin-1-yl)-2′-ethoxy-N-[(3R)-1-methylpyrrolidin-3-yl]-[2,3′-bipyridine]-6-carboxamide] |
| < 0.01 | CCOc1ncccc1-c1ccc(N2CC[C@@H](Oc3ccc(Cl)cc3C#N)C[C@H]2CC)c(C(=O)N[C@@H]2CCN(C)C2)n1 (single isomer, unassigned) [2-21] |
